Assay results reported in patent publication US4293549A, “Quinolinyl guanidines having antiinflammatory, analgesic or antipyretic activity” (Leo Pharmaceutical Products Ltd. A/S (Lovens Kemiske Fabrik, priority 1977, dated 1981).

Columns and labels:
stomachs = assay: Gastro ulcerogenic activity in rats; format: in vivo; details: 24 hrs; for Mean severity: scale 0=no lesion to +4=perforation
Method: Rats fasted for 9 hrs before treatment were given different doses of the compounds. 24 hrs later the animals were killed, the stomachs were removed, opened along the lesser curvature and gross examined for the presence of lesions and their severity. The severity was assessed according to an arbitrary scale from 0=no lesion to +4=perforation.

[1] = system: carrageenin induced edema; assay: Inhibition of carrageenin edema in rats; format: in vivo; details: 1 hr before carrageenin
Method: Inhibitory activity toward carrageenin induced edema was assessed in rats using the technique of Winter C. A., Risley E. A., Nuss C. […] The compounds were orally administered suspended in 0.5% carboxymethylcellulose to 18 hrs fasting animals, 1 hr before the injection of carrageenin.

[2] = Acute toxicity in mice after oral administration; details: mouse, in vivo, p.os, mortality assessed eight days after administration, read-out: LD50 (with confidence limits)
Method: The acute toxicity was determined in mice after oral administration. The mortality was assessed eight days after the administration and the LD50 (dose causing the death of 50% of the animals treated) was calculated according to the statistical method of Litchfield and Wilcoxon (J.Pharmacol.Exp.Ther. 96, 99, (1949)).

[3] = system: adjuvant induced arthritis; assay: Inhibition of adjuvant induced arthritis in rats; format: in vivo
From the text: The compounds were orally administered suspended in 0.5% carboxymethylcellulose, daily, from the day of adjuvant injection to 28 days later.

pain threshold = assay: Analgetic effect in rats (Randall and Selitto); format: in vivo; details: 2 hrs after administration
prostaglandin synthetase = target: T1, prostaglandin synthetase (Bos taurus, UniProt O62664); assay: Inhibition of prostaglandin synthetase (bovine seminal vesicle homogenate); format: biochemical; details: lyophilized high speed precipitate of bovine seminal vesicle homogenate
T1 construct: lyophilized high speed precipitate of bovine seminal vesicle homogenate as enzyme; from tissue; host or cells: bovine seminal vesicle homogenate, lyophilized high speed precipitate
T1 sequence (O62664 25-600): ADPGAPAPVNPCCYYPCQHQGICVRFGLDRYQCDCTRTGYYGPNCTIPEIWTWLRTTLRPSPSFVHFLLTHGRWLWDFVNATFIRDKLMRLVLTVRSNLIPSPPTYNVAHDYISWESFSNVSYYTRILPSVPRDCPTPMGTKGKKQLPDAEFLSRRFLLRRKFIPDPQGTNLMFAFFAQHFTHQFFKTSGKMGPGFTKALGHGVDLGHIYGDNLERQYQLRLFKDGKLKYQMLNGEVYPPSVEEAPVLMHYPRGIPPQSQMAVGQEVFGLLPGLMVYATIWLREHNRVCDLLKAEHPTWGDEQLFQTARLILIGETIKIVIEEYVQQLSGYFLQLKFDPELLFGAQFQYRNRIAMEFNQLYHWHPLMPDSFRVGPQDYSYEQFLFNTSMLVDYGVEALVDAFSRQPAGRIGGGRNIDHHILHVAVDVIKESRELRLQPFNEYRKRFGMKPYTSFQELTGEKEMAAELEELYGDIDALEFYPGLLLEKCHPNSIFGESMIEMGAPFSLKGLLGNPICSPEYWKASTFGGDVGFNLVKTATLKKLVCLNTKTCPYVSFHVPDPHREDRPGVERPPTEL

[4] = Antipyretic effect in rats; format: in vivo; details: over 180 min
Method: The compounds were orally administered and the antipyretic index evaluated over 180 min. of the experiment.

COc1ccc2c(c1)c(CC(=O)O)c(C)n2C(=O)c1ccc(Cl)cc1 [Indomethacin, reference compound]
% with lesions (stomachs; oral dose 5 mg/kg): 20%
Mean severity (stomachs; oral dose 5 mg/kg): 1.3
% with lesions (stomachs; oral dose 10 mg/kg): 70%
Mean severity (stomachs; oral dose 10 mg/kg): 2.8
% Inhibition 3 hrs after carrageenin ([1]; oral dose 0.5 mg/kg): 34%
% Inhibition 3 hrs after carrageenin ([1]; oral dose 1 mg/kg): 42%
% Inhibition 3 hrs after carrageenin ([1]; oral dose 10 mg/kg): 65%
LD50 at 192 h [2]: 23 mg/kg
% Inhibition of the swelling, 18th day, primary ([3]; daily oral dose 0.3 mg/kg): 20.3%
% Inhibition of the swelling, 18th day, secondary ([3]; daily oral dose 0.3 mg/kg): 13.5%
% Inhibition of the swelling, 28th day, primary ([3]; daily oral dose 0.3 mg/kg): 25.9%
% Inhibition of the swelling, 28th day, secondary ([3]; daily oral dose 0.3 mg/kg): 29.7%
% Inhibition of the swelling, 18th day, primary ([3]; daily oral dose 1 mg/kg): 62.4%
% Inhibition of the swelling, 18th day, secondary ([3]; daily oral dose 1 mg/kg): 66.2%
% Inhibition of the swelling, 28th day, primary ([3]; daily oral dose 1 mg/kg): 80.5%
% Inhibition of the swelling, 28th day, secondary ([3]; daily oral dose 1 mg/kg): 76.8%
Increase of pain threshold (pain threshold; oral dose 1 mg/kg): 19 mmHg
Increase of pain threshold (pain threshold; oral dose 3 mg/kg): 34 mmHg

Cc1cc(/N=C(\Nc2nccs2)NC2CCCCC2)c2ccccc2n1 [SR 1368, N-Cyclohexyl-N"-4-(2-methylquinolyl)-N'-2-thiazolylguanidine]
% with lesions (stomachs; oral dose 25 mg/kg): 0%
Mean severity (stomachs; oral dose 25 mg/kg): 0
% with lesions (stomachs; oral dose 50 mg/kg): 20%
Mean severity (stomachs; oral dose 50 mg/kg): 0.9
% with lesions (stomachs; oral dose 100 mg/kg): 40%
Mean severity (stomachs; oral dose 100 mg/kg): 1.7
% Inhibition 3 hrs after carrageenin ([1]; oral dose 25 mg/kg): 40%
% Inhibition 3 hrs after carrageenin ([1]; oral dose 50 mg/kg): 62%
% Inhibition 3 hrs after carrageenin ([1]; oral dose 100 mg/kg): 71%
LD50 at 192 h [2]: > 1000 mg/kg
IC50 (prostaglandin synthetase): 2460 nM
% Inhibition of the swelling, 18th day, primary ([3]; daily oral dose 5 mg/kg): 23.5%
% Inhibition of the swelling, 18th day, secondary ([3]; daily oral dose 5 mg/kg): 14.9%
% Inhibition of the swelling, 28th day, primary ([3]; daily oral dose 5 mg/kg): 21.4%
% Inhibition of the swelling, 28th day, secondary ([3]; daily oral dose 5 mg/kg): 32.1%
% Inhibition of the swelling, 18th day, primary ([3]; daily oral dose 10 mg/kg): 29.2%
% Inhibition of the swelling, 18th day, secondary ([3]; daily oral dose 10 mg/kg): 54.4%
% Inhibition of the swelling, 28th day, primary ([3]; daily oral dose 10 mg/kg): 42.7%
% Inhibition of the swelling, 28th day, secondary ([3]; daily oral dose 10 mg/kg): 68.7%
% Inhibition of the swelling, 18th day, primary ([3]; daily oral dose 30 mg/kg): 44.2%
% Inhibition of the swelling, 18th day, secondary ([3]; daily oral dose 30 mg/kg): 53.2%
% Inhibition of the swelling, 28th day, primary ([3]; daily oral dose 30 mg/kg): 69.4%
% Inhibition of the swelling, 28th day, secondary ([3]; daily oral dose 30 mg/kg): 69.2%
% Inhibition of the swelling, 18th day, primary ([3]; daily oral dose 60 mg/kg): 51.6%
% Inhibition of the swelling, 18th day, secondary ([3]; daily oral dose 60 mg/kg): 73.4%
% Inhibition of the swelling, 28th day, primary ([3]; daily oral dose 60 mg/kg): 74.2%
% Inhibition of the swelling, 28th day, secondary ([3]; daily oral dose 60 mg/kg): 82.6%
Increase of pain threshold (pain threshold; oral dose 10 mg/kg): 12 mmHg
Increase of pain threshold (pain threshold; oral dose 30 mg/kg): 31 mmHg
Increase of pain threshold (pain threshold; oral dose 90 mg/kg): 68 mmHg
Antipyretic index ([4]; oral dose 25 mg/kg): 2.2
Antipyretic index ([4]; oral dose 50 mg/kg): 5.6
